Experimental data reported in PubChem BioAssay (NCI).
“And” between values parts separate entries of the source, which are not always exact repeats. Equal entries are not always repeated.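 In this assay, cells in 96-well plates receive the compound at five concentrations for 48 hours. Endpoints are linearly interpolated between the surrounding concentrations. GI50: concentration for 50% inhibition of growth. TGI is the concentration that stops growth completely.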

What was measured:
Assay in all cases: NCI-60 cell line screen, 48 h
MOLT-4 leukemia = system: MOLT-4 leukemia
OVCAR-4 ovarian = system: OVCAR-4 ovarian
UACC-257 melanoma = system: UACC-257 melanoma
NCI-H23 lung = system: NCI-H23 lung
CAKI-1 renal = system: CAKI-1 renal
SK-MEL-5 melanoma = system: SK-MEL-5 melanoma
UO-31 renal = system: UO-31 renal
SNB-19 CNS = system: SNB-19 CNS
OVCAR-3 ovarian = system: OVCAR-3 ovarian
A498 renal = system: A498 renal

Row | SMILES | TGI (MOLT-4 leukemia) | TGI (OVCAR-4 ovarian) | TGI (UACC-257 melanoma) | TGI (NCI-H23 lung) | TGI (CAKI-1 renal) | TGI (SK-MEL-5 melanoma) | TGI (UO-31 renal) | TGI (SNB-19 CNS) | TGI (OVCAR-3 ovarian) | TGI (A498 renal) | GI50 (MOLT-4 leukemia) | GI50 (OVCAR-4 ovarian) | GI50 (UACC-257 melanoma) | GI50 (NCI-H23 lung) | GI50 (CAKI-1 renal) | GI50 (SK-MEL-5 melanoma) | GI50 (UO-31 renal) | GI50 (SNB-19 CNS) | GI50 (OVCAR-3 ovarian) | GI50 (A498 renal)
1 | COc1ccc(C(c2ccccc2)N2C(=O)CCC2C(=O)O)cc1OC (configuration not stated) | > 100 µM | > 100 µM | > 100 µM | > 100 µM | > 100 µM | > 100 µM | > 100 µM | > 100 µM | > 100 µM | > 100 µM | – | – | – | – | – | – | – | – | – | –
2 | O=C(Nc1ccc(-n2cc(-c3ccncc3)c(-c3ccc(O)c(Cl)c3)n2)cc1)c1ccc(Cl)c(Cl)c1 | > 32.5 µM | > 32.5 µM | > 32.5 µM | > 32.5 µM | > 32.5 µM | > 32.5 µM | > 32.5 µM | > 32.5 µM | > 32.5 µM | > 32.5 µM | 1.37 µM | 2.71 µM | > 32.5 µM | 2.18 µM | 2.21 µM | 1 µM | 1.8 µM | 2.67 µM | 2.11 µM | > 32.5 µM
3 | COc1cc(-c2c(C(C)=O)c(-c3ccccc3)n(C3OC(COC(C)=O)C(OC(C)=O)C(OC(C)=O)C3OC(C)=O)c(=S)c2C#N)ccc1O (configuration not stated) | > 100 µM | > 100 µM | > 100 µM | > 100 µM | > 100 µM | > 100 µM | > 100 µM | > 100 µM | > 100 µM | > 100 µM | – | – | > 100 µM and 34.9 µM | – | – | – | – | – | 44.1 µM and > 100 µM | –
4 | Nc1nc(Cl)c(N)c(NCC2(CO)CC(O)C2)n1 (configuration not stated) | > 100 µM | > 100 µM | > 100 µM | > 100 µM | > 100 µM | > 100 µM | > 100 µM | > 100 µM | > 100 µM | > 100 µM | – | – | – | – | – | – | – | – | – | –
5 | O=C(CCl)Nc1ccc(-c2nc3ccccc3s2)cc1 | 12.8 µM | 15.2 µM | 11.6 µM | 10.2 µM | 3.38 µM | 3.17 µM | 20.6 µM | 9.99 µM | 3.61 µM | 11.7 µM | – | – | – | – | – | – | – | – | – | –
6 | C[N+](C)(C)C(Cc1c[nH]c(=S)[nH]1)C(=O)O (configuration not stated) | > 100 µM | > 100 µM | > 100 µM | > 100 µM | > 100 µM | > 100 µM | > 100 µM | > 100 µM | > 100 µM | > 100 µM | – | – | – | – | – | – | – | – | – | –
7 | CCCN=C1S/C(=C/c2ccc(OC)c(OC)c2)C(=O)N1c1ccccc1 | > 100 µM | 80.6 µM | > 100 µM | > 100 µM | > 100 µM | > 100 µM | 98.6 µM | 63.4 µM | 43.3 µM | 58.2 µM | – | – | – | – | – | – | – | – | – | –
8 | O=C1c2ccccc2-c2ccc(N(Cc3ccc(Br)cc3)Cc3ccc(Br)cc3)cc21 | > 100 µM | > 100 µM | > 100 µM | > 100 µM | > 100 µM | > 100 µM | > 100 µM | > 100 µM | > 100 µM | > 100 µM | – | – | – | – | – | – | – | – | – | –
